These results are taken from patent publication US10988465B2, “CXCR4 inhibitors and uses thereof” (X4 Pharmaceuticals, Inc., priority 2016, dated 2021).

Like-named read-outs stand apart in the source and are kept apart here.

The nature of one data set: in vitro. As to conditions: human, Caco-2, pH 7.4. The method, boiled down: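 Bidirectional permeability across Caco-2 monolayers in HBSS (pH 7.4) at a test concentration of 10 μM, incubated 0 and 90 min at 37° C (n=2). Monolayer integrity was assessed by TEER and Lucifer yellow. Papp was derived from LC-MS/MS-measured concentrations.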
A short description of data set [1]: Rat brain uptake assay: pharmacokinetics and brain penetration after IV-PO administration. The data set is classed as in vivo, male SD rats. To be noted: male, SD; for clearance / AUC(0-t) / bioavailability / half-life: Rat (3 mg/kg IV; 10 mg/kg, PO); for bioavailability: read-out: F % (oral bioavailability); for half-life: read-out: t½ (converted). The protocol:
Example 39: Pharmacokinetics and Brain Penetration Experiment to Determine Brain and Plasma Concentration of Compounds after IV-PO Administration to Male SD Rats
The IV and PO dosing solutions were prepared in 50 mM citrate buffer (pH 4.0) at 2 mg/mL. The blood collection was performed as follows: the animal was restrained manually at the designated time points, approximately 150 μL of blood sample was collected via cardiac puncture vein into EDTA-2K tubes. The blood samples were maintained in wet ice first and centrifuged to obtain plasma (2000 g, 4° C., 5 min) within 15 minutes post sampling. The brain collection was performed as follows: a mid-line incision was made in the animal's scalp and the skin was retracted. Using small bone cutters and rongeurs, the skull overlying the brain was removed. The brain was removed using a spatula and rinsed with cold saline. The brain was placed in screw-top tubes and then stored under −70° C. until analysis. The CSF collection was performed as follows: the animal was euthanized under deep anesthesia with air bubble tail vein injection. The CSF was collected by direct puncture of butterfly needle into the cisterna magna, using the occipital bone and the wings of the atlas as landmarks. A piece of white paper was used as a background to monitor color change in the sample just above the needle during collection. Upon observation of color change, the PE tubing was quickly clamped off above the color change and cut just above the clamped site. The clear sample was drawn into the syringe.
An aliquot of 30 μL sample was added to 100 μL MeCN containing 100 ng/mL IS (Dexamethasone). The mixture was vortexed for 10 min and centrifuged at 5800 rpm for 10 min. An aliquot of 40 μL supernatant was added with 40 μl H2O and the mixture was vortexed for 5 min. An aliquot of 2 μL supernatant was injected for LC-MS/MS analysis.
The sample was homogenized with 3 volumes (v/w) of PBS. An aliquot of 30 μL sample was added with 100 μL MeCN containing 100 ng/mL IS (Dexamethasone). The mixture was vortexed for 10 min and centrifuged at 5800 rpm for 10 min. An aliquot of 40 μL supernatant was added with 40 μl H2O and the mixture was vortexed for 5 min. An aliquot of 2 μL supernatant was injected for LC-MS/MS analysis.
An aliquot of 10 μL sample was added to 10 μL MeOH/H2O (1/1) and 40 μL ACN containing 200 ng/mL IS (Dexamethasone) 120 μL H2O. The mixture was vortexed for 5 min. An aliquot of 2 μL supernatant was injected for LC-MS/MS analysis.
The sample analysis was performed on UPLC-MS/MS-02 (Triple Quad™ 4000) under the following conditions: positive ion, ESI, MRM detection using dexamethasone as internal standard. HPLC conditions: mobile phase A: H2O-0.1% FA, mobile phase B: MeCN-0.1% FA on ACQUITY UPLC HSS T3 (2.1×50 mm, 1.8 μm) column at 60° C. In Table 11, F % means means oral bioavailability (the total number for protein bound and free fraction).

Test in data set [2]: as above
The data set is classed as in vivo, male SD rats.

Where [3] appears, read: brain (brain proteins), read-out: Fu (b) % (fraction of drug unbound to brain proteins).
Setting [4] is: plasma, read-out: Fu (p) % (fraction of drug unbound to plasma proteins).

Turning to `CN1CCN(c2cccc3nc([C@H]4CCC[C@@H](c5ncccc5Cl)N4)[nH]c23)CC1` (racemic) [I-122], in the data set “in vitro”, the Papp A→B at 90 min, 10 μM was 10 to 30 ×10⁻⁶ cm/s; the Papp B→A at 90 min, 10 μM was in the range of 10 to 30 ×10⁻⁶ cm/s; the efflux ratio at 90 min, 10 μM lay in the range of 0.1 to 10. Further, in data set [1] (brain/plasma (unbound), Fu (b)*AUC last (b)/Fu (p)*AUC last (p), Rat, read-out: Kp, uu (unbound brain/unbound plasma drug concentration ratio)), the Kp uu came to 0.2. Moreover, in data set [1] (brain/plasma, AUC last(b)/AUC last(p), Rat, read-out: Kp (brain/plasma drug concentration ratio)), the Kp was determined as 1.22. In data set [1] (plasma), the clearance was 31.7 mL/min/kg, the bioavailability was found to be 74.6% and the half-life was 319 min. For the same compound, the AUC(0-t) in data set [1] (plasma, read-out: AUClast (P)) is 5440 ng·h/mL. In addition, the AUC(0-t) in data set [1] (brain, read-out: AUClast (b)) was 6650 ng·h/mL. Moreover, the fraction unbound in data set [2] (setting [3]) amounted to 0.041. In data set [2] (setting [4]), the fraction unbound is 0.251.
In the data set “in vitro”, `Cc1cccnc1[C@@H]1CCC[C@H](c2nc3cccc(N4CCN(C)CC4)c3[nH]2)N1C` (racemic) [I-3, 2-((2R,6S)-1-methyl-6-(3-methylpyridin-2-yl)piperidin-2-yl)-7-(4-methylpiperazin-1-yl)-1H-benzo[d]imidazole] displayed a Papp A→B at 90 min, 10 μM of 0.1 to 10 ×10⁻⁶ cm/s and a Papp B→A at 90 min, 10 μM of 10 to 30 ×10⁻⁶ cm/s. In data set [1] (plasma), the clearance is 123 mL/min/kg, the bioavailability came out at 37.6% and the half-life is 126 min. For the same compound, the AUC(0-t) in data set [1] (plasma, read-out: AUClast (P)) is 503 ng·h/mL. The AUC(0-t) in data set [1] (brain, read-out: AUClast (b)) came out at 1520 ng·h/mL. The fraction unbound in data set [2] (setting [3]) was found to be 0.014. Further, in data set [2] (setting [4]), the fraction unbound worked out at 0.101.
